{
  "source": "ChEMBL document CHEMBL1201862",
  "about": "“PubChem BioAssay data set” (2004)",
  "format_in_all_cases": "functional",
  "key": {"[1]": {"target": "Tyrosine-protein kinase receptor TYRO3 (Homo sapiens, UniProt Q06418)"}, "[2]": {"target": "Non-receptor tyrosine-protein kinase TYK2 (Homo sapiens, UniProt P29597)"}, "[3]": {"target": "Dual specificity protein kinase CLK2 (Homo sapiens, UniProt P49760)"}, "[4]": {"target": "Mitogen-activated protein kinase kinase kinase 20 (Homo sapiens, UniProt Q9NYL2)", "sequence (Q9NYL2 whole entry)": "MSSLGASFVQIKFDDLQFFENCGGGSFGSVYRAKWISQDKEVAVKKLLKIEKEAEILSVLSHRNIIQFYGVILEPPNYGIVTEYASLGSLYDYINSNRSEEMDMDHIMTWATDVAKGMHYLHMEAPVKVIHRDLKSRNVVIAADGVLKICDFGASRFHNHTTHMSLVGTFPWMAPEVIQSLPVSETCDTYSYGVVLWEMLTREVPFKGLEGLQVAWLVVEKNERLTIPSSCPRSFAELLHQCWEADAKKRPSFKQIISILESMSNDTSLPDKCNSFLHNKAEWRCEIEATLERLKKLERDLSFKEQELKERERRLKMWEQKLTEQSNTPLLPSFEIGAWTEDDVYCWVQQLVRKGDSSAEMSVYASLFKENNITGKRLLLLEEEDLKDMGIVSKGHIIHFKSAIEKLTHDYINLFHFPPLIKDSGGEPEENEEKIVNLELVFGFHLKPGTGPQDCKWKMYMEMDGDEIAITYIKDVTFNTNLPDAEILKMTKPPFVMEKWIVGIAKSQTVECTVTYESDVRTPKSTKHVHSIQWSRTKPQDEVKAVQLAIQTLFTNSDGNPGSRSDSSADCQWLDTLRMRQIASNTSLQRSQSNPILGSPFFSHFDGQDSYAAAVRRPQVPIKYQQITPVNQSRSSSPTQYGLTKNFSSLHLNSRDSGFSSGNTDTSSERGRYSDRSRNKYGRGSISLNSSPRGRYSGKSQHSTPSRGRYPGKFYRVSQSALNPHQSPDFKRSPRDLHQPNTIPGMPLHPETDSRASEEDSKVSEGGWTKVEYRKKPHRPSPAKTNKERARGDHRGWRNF"}, "[5]": {"target": "Megakaryocyte-associated tyrosine-protein kinase (Homo sapiens, UniProt P42679)", "sequence (P42679 whole entry)": "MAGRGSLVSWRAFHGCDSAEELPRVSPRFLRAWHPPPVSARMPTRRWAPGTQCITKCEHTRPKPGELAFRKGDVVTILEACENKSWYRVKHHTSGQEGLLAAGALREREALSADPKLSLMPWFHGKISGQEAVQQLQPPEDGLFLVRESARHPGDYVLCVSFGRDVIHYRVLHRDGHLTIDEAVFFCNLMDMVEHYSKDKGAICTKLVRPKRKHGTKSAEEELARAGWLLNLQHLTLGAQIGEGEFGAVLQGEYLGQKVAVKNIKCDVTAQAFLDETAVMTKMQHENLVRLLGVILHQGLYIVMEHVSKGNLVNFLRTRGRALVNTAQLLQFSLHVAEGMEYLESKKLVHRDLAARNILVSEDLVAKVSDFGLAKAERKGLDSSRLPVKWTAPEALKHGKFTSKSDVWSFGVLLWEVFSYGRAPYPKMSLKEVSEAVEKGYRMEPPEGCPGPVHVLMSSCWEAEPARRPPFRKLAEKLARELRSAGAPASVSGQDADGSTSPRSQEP"}, "[6]": {"target": "SRSF protein kinase 1 (Homo sapiens, UniProt Q96SB4)"}, "[7]": {"target": "Protein kinase C iota type (Homo sapiens, UniProt P41743)", "sequence (P41743 whole entry)": "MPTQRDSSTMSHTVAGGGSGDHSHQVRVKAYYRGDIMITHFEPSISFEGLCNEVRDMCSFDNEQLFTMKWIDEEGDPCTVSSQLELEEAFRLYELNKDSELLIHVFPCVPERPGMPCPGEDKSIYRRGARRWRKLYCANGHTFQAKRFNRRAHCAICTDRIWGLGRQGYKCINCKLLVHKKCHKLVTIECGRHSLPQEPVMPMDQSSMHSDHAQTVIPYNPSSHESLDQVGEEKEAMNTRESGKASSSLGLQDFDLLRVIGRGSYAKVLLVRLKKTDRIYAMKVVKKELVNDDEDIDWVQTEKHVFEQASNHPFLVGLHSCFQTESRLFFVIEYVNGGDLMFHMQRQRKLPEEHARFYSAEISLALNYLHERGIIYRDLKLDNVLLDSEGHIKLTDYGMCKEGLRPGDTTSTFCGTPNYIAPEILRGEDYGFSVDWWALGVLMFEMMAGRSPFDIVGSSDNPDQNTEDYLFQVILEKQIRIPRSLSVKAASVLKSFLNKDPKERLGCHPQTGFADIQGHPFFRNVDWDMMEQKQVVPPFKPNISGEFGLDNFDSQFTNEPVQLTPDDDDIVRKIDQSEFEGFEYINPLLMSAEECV"}, "[8]": {"target": "Phosphorylase b kinase gamma catalytic chain, liver/testis isoform (Homo sapiens, UniProt P15735)"}, "[9]": {"target": "Aurora kinase A (Homo sapiens, UniProt O14965)"}, "[10]": {"target": "Mitogen-activated protein kinase kinase kinase kinase 2 (Homo sapiens, UniProt Q12851)"}, "[11]": {"target": "Aurora kinase B (Homo sapiens, UniProt Q96GD4)", "sequence (Q96GD4 whole entry)": "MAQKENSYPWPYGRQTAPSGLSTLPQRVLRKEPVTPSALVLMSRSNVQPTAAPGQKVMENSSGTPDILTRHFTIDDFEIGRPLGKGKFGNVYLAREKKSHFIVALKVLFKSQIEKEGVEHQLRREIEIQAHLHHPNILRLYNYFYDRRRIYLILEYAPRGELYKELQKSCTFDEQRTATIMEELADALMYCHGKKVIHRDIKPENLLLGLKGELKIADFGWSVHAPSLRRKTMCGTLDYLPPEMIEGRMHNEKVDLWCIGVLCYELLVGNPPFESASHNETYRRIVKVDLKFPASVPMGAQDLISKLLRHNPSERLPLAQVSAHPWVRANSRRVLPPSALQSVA"}, "[12]": {"target": "Hepatocyte growth factor receptor (Homo sapiens, UniProt P08581)"}, "[13]": {"target": "Serine/threonine-protein kinase 17A (Homo sapiens, UniProt Q9UEE5)", "sequence (Q9UEE5 whole entry)": "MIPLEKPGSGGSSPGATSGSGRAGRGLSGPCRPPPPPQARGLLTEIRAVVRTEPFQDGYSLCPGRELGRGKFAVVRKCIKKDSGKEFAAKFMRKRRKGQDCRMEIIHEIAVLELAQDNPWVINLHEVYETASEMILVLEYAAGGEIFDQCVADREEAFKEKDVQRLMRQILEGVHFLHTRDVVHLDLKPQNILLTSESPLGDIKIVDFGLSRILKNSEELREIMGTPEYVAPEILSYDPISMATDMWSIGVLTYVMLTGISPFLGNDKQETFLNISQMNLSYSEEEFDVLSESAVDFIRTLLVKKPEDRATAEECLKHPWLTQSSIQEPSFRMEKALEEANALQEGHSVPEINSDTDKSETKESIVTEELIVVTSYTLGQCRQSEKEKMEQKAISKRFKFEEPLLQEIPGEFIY"}, "[14]": {"target": "Glycogen synthase kinase-3 alpha (Homo sapiens, UniProt P49840)"}, "[15]": {"target": "Serine/threonine-protein kinase PAK 1 (Homo sapiens, UniProt Q13153)", "sequence (Q13153 whole entry)": "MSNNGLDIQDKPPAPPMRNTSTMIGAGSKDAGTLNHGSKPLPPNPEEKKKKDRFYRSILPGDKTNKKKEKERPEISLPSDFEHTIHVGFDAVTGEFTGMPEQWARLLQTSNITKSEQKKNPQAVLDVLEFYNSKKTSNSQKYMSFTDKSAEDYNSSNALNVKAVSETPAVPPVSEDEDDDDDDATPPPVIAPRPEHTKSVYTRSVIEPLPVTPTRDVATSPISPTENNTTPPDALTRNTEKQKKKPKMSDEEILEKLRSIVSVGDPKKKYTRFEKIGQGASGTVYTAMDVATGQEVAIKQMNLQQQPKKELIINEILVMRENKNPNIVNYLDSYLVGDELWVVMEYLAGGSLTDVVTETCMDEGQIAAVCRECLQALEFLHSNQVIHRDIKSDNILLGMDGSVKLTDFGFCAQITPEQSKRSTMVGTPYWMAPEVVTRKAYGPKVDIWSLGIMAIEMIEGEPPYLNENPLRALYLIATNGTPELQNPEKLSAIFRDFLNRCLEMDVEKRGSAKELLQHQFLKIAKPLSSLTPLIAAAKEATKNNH"}, "[16]": {"target": "Vascular endothelial growth factor receptor 2 (Homo sapiens, UniProt P35968)"}, "[17]": {"target": "Serine/threonine-protein kinase Chk2 (Homo sapiens, UniProt O96017)"}, "[18]": {"target": "Serine/threonine-protein kinase TAO1 (Homo sapiens, UniProt Q7L7X3)", "sequence (Q7L7X3 whole entry)": "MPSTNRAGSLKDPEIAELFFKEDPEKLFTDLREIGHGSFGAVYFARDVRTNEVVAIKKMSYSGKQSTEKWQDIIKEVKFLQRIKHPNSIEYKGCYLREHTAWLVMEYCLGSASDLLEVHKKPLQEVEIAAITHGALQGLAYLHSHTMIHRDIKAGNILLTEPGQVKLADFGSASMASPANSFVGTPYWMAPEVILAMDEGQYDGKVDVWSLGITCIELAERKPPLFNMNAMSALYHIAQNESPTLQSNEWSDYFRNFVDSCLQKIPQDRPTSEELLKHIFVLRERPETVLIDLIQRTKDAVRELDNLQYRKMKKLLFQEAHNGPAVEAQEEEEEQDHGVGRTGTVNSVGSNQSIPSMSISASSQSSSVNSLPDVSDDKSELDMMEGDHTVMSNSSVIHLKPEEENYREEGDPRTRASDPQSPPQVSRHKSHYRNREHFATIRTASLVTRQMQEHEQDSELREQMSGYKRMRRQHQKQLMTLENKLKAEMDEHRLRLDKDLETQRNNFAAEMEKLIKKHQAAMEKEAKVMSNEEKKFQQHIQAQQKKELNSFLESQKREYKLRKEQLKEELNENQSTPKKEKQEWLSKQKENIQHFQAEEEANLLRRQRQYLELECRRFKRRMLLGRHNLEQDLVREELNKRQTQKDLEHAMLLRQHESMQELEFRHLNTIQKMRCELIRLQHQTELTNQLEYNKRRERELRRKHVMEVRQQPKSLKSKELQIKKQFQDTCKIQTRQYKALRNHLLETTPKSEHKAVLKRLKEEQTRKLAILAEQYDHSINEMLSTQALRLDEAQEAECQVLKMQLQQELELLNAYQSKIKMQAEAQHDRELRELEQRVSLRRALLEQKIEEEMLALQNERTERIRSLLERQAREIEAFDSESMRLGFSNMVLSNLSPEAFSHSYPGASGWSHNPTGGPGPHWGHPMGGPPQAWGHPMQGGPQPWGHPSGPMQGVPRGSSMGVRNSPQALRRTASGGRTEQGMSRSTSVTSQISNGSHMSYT"}, "[19]": {"target": "MAP kinase-activated protein kinase 5 (Homo sapiens, UniProt Q8IW41)"}, "[20]": {"target": "Tyrosine-protein kinase Fyn (Homo sapiens, UniProt P06241)"}, "[21]": {"target": "High affinity nerve growth factor receptor (Homo sapiens, UniProt P04629)"}, "[22]": {"target": "3-phosphoinositide-dependent protein kinase 1 (Homo sapiens, UniProt O15530)"}, "[23]": {"target": "Focal adhesion kinase 1 (Homo sapiens, UniProt Q05397)"}, "[24]": {"target": "Glycogen synthase kinase-3 beta (Homo sapiens, UniProt P49841)", "sequence (P49841 whole entry)": "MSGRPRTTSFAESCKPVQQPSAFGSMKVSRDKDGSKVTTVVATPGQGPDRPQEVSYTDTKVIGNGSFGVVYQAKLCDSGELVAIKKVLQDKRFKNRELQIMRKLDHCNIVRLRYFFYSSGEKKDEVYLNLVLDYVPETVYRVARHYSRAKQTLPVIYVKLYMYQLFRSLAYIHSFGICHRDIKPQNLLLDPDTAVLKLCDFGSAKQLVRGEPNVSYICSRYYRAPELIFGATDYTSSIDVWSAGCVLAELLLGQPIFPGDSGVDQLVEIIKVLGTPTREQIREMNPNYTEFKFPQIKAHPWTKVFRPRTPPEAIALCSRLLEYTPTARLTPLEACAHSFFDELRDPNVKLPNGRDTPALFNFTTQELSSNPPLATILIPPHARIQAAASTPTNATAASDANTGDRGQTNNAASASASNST"}, "[25]": {"target": "Fibroblast growth factor receptor 1 (Homo sapiens, UniProt P11362)"}},
  "note": "Calls of active or inactive are those of the source.",
  "data": [
    {"smiles": "NC(=O)Cn1cc(-c2cc(-c3cc4ccccc4s3)c3[nH]ncc3c2)c2nc(N)ncc21", "values": [
      {"measurement": "Ki", "setting": "[1]", "value": "> 2 µM (inactive)"},
      {"measurement": "Ki", "setting": "[2]", "value": "> 2 µM (inactive)"},
      {"measurement": "Ki", "setting": "[3]", "value": "1 µM (active)"},
      {"measurement": "Ki", "setting": "[4]", "value": "> 7.94 µM (inactive)"},
      {"measurement": "Ki", "setting": "[5]", "value": "> 2 µM (inactive)"},
      {"measurement": "Ki", "setting": "[6]", "value": "2 µM (active)"},
      {"measurement": "Ki", "setting": "[7]", "value": "0.0631 µM (active)"},
      {"measurement": "Ki", "setting": "[8]", "value": "3.16 µM (active)"},
      {"measurement": "Ki", "setting": "[9]", "value": "1.26 µM (active)"},
      {"measurement": "Ki", "setting": "[10]", "value": "0.501 µM (active)"},
      {"measurement": "Ki", "setting": "[11]", "value": "3.98 µM (active)"},
      {"measurement": "Ki", "setting": "[12]", "value": "2.51 µM (active)"},
      {"measurement": "Ki", "setting": "[13]", "value": "0.251 µM (active)"},
      {"measurement": "Ki", "setting": "[14]", "value": "0.0501 µM (active)"},
      {"measurement": "Ki", "setting": "[15]", "value": "3.98 µM (active)"},
      {"measurement": "Ki", "setting": "[16]", "value": "1.26 µM (active)"},
      {"measurement": "Ki", "setting": "[17]", "value": "0.0398 µM (active)"},
      {"measurement": "Ki", "setting": "[18]", "value": "2.51 µM (active)"},
      {"measurement": "Ki", "setting": "[19]", "value": "0.631 µM (active)"},
      {"measurement": "Ki", "setting": "[20]", "value": "> 0.794 µM (inactive)"},
      {"measurement": "Ki", "setting": "[21]", "value": "> 2.51 µM (inactive)"},
      {"measurement": "Ki", "setting": "[22]", "value": "0.00794 µM (active)"},
      {"measurement": "Ki", "setting": "[23]", "value": "> 1.58 µM (inactive)"},
      {"measurement": "Ki", "setting": "[24]", "value": "0.1 µM (active)"},
      {"measurement": "Ki", "setting": "[25]", "value": "> 5.01 µM (inactive)"}
    ]}
  ]
}
